Test results reported in patent US20120010075A1 (priority 2009, published 2012).
Read-outs that look alike come from different tables or passages of the source.

How the values were obtained:
Phytophthora infestans = assay type: in vivo, Phytophthora infestans on tomato; details: applied 24 h before inoculation, assessed 7 days after inoculation
[1] = system: Leptosphaeria nodorum (LEPTNO); assay: In vitro fungitoxicity of hydrazones with and without copper towards Leptosphaeria nodorum (Example 26); assay type: cell-based; details: for inhibition of growth at 0.05 µg/mL: Parastagonospora nodorum, 72 h, read-out: LEPTNO % Inhn. Minus Copper Observed
[2] = hydrazone 50 ppm + 50 μM CuCl2.2H2O, tomato
[3] = compound 0.05 μg/mL, copper-minus medium, 72 h at 25° C.
[4] = compound 0.05 μg/mL, copper-plus medium (CuCl2.2H2O), 72 h at 25° C.
[5] = hydrazone 50 ppm with 50 μM CuCl2.2H2O, tomato late blight
[6] = copper-minus medium, test compound Concn. 0.05 μg/mL, 72 h at 25° C.
[7] = copper-plus medium (CuCl2 10 μM), test compound Concn. 0.05 μg/mL, 72 h at 25° C.

Row | Compound | TLB % Control (Phytophthora infestans; [2]) [%] | inhibition of growth at 0.05 µg/mL [1, 3] [%] | LEPTNO % Inhn. Plus Copper Observed [1, 4] [%] | TLB % Control (Phytophthora infestans; [5]) [%] | inhibition of growth at 0.05 µg/mL [1, 6] [%] | LEPTNO % Inhn. Plus Copper Observed [1, 7] [%] | inhibition of growth at 0.05 µg/mL [1] [%] | LEPTNO % Inhn. Minus Copper Observed [1, 3] [%]
1 | Cc1ccc(C(=O)N/N=C/c2ccccc2O)cc1 [Example 8] | 59.6 | 0 | 92.6 | – | – | – | – | –
2 | O=C(N/N=C/c1ccccc1O)c1ccc(Cl)cc1 [Example 2] | 61.4 | 0 | 95.1 | – | – | – | – | –
3 | COc1cc(O)c(/C(C)=N/NC(=O)c2ccccc2)c(OC)c1 [Example 526] | – | – | – | 41.0 | 1.8 | 16.2 | – | –
4 | COc1cccc(C(=O)N/N=C/c2cc(Cl)ccc2O)c1 [Example 188] | 74.6 | 7.9 | 96.5 | – | – | – | – | –
5 | COc1cc([N+](=O)[O-])cc(/C=N/NC(=O)c2ccccc2)c1O [Example 155] | 32.0 | 1.9 | 78.3 | – | – | – | – | –
6 | O=C(N/N=C/c1cc(Cl)cc(Br)c1O)c1ccccc1Br [Example 193] | 80.0 | 0 | 95.1 | – | – | – | – | –
7 | C/C(=N\NC(=O)c1ccc(C)cc1C)c1ccccc1O [Example 29] | 50.8 | 0 | 98.0 | – | – | – | – | –
8 | COc1ccc(/C=N/NC(=O)c2ccc(Cl)cc2)c(O)c1 [Example 200] | 78.9 | 0 | 95.0 | – | – | – | – | –
9 | O=C(N/N=C/c1ccc(Cl)cc1O)c1cccc(Cl)c1 [Example 391] | – | – | – | 92.0 | 6 | 96.9 | – | –
10 | O=C(N/N=C/c1c(O)ccc2ccccc12)c1ccccc1 [Example 4] | 67.8 | 4.4 | 94.5 | – | – | – | – | –
11 | O=C(N/N=C/c1cc(Br)cc([N+](=O)[O-])c1O)c1ccccc1 [Example 144] | 87.0 | 0 | 98.5 | – | – | – | – | –
12 | O=C(N/N=C/c1cc(Cl)ccc1O)c1cccc(Br)c1 [Example 181] | 90.5 | 16 | 97.6 | – | – | – | – | –
13 | O=C(N/N=C/c1cc(Br)ccc1O)c1ccc(Cl)cc1 [Example 171] | 15.8 | 4 | 98.3 | – | – | – | – | –
14 | COc1ccc(O)c(/C=N/NC(=O)c2ccccc2)c1 [Example 154] | 36.6 | 3.4 | 70.7 | – | – | – | – | –
15 | O=C(N/N=C/c1cc(Br)ccc1O)c1ccccc1Oc1ccccc1 [Example 19] | 25.0 | 2.9 | 88.8 | – | – | – | – | –
16 | C/C(=N\NC(=O)c1cccc(F)c1)c1ccccc1O [Example 25] | 35.1 | 0 | 97.3 | – | – | – | – | –
17 | C/C(=N\NC(=O)c1ccc2ccccc2c1O)c1cc(Cl)cc(Cl)c1O [Example 480] | – | – | – | 4.7 | 9.5 | 95.3 | – | –
18 | C/C(=N\NC(=O)c1cccc(Cl)c1)c1ccccc1O [Example 65] | 10.0 | 0 | 98.3 | – | – | – | – | –
19 | O=C(N/N=C/c1cc(Br)cc(Br)c1O)c1ccccc1F [Example 116] | 88.8 | 8.4 | 98.2 | – | – | – | – | –
20 | Cc1cccc(C(=O)N/N=C/c2cc(Br)cc(Br)c2O)c1 [Example 115] | 78.2 | 6.1 | 97.4 | – | – | – | – | –
21 | O=C(N/N=C/c1cc(Br)ccc1O)c1ccccc1Cl [Example 170] | 65.5 | 0 | 94.5 | – | – | – | – | –
22 | C/C(=N\NC(=O)c1ccc(C(F)(F)F)cc1)c1ccccc1O [Example 11] | 42.1 | 0.3 | 97.2 | – | – | – | – | –
23 | C/C(=N\NC(=O)c1ccc(Br)cc1)c1cc(Cl)cc(Cl)c1O [Example 139] | 93.0 | 1.7 | 97.1 | – | – | – | – | –
24 | COc1cc(Br)cc(/C=N/NC(=O)c2cccc(Cl)c2)c1O [Example 203] | 56.4 | 6.9 | 95.7 | – | – | – | – | –
25 | C/C(=N\NC(=O)c1ccccc1Br)c1ccccc1O [Example 64] | 43.0 | 0 | 97.8 | – | – | – | – | –

Row | Compound | TLB % Control (Phytophthora infestans; [2]) [%] | inhibition of growth at 0.05 µg/mL [1, 3] [%] | LEPTNO % Inhn. Plus Copper Observed [1, 4] [%] | TLB % Control (Phytophthora infestans; [5]) [%] | inhibition of growth at 0.05 µg/mL [1, 6] [%] | LEPTNO % Inhn. Plus Copper Observed [1, 7] [%] | inhibition of growth at 0.05 µg/mL [1] [%] | LEPTNO % Inhn. Minus Copper Observed [1, 3] [%]
26 | COc1cc(OC)cc(C(=O)N/N=C/c2cc(Cl)cc(Cl)c2O)c1 [Example 88] | 4.8 | 10.7 | 96.7 | – | – | – | – | –
27 | O=C(N/N=C/c1ccccc1O)c1cccc(Cl)c1 [Example 175] | 80.0 | 4.9 | 97.9 | – | – | – | – | –
28 | O=C(N/N=C/c1cc(Cl)cc(Br)c1O)c1ccccc1F [Example 169] | 78.9 | 2.7 | 98.1 | – | – | – | – | –
29 | CN(C)c1ccc(C(=O)N/N=C/c2cc(Cl)cc(Cl)c2O)cc1 [Example 103] | 63.2 | 17.9 | 98.1 | – | – | – | – | –
30 | COc1ccc(C(=O)N/N=C/c2cc(Cl)cc(Cl)c2O)cc1OC [Example 85] | 51.5 | 5.3 | 90.0 | – | – | – | – | –
31 | O=C(N/N=C/c1ccccc1O)c1ccc(Br)cc1 [Example 173] | 12.2 | 8.3 | 97.7 | – | – | – | – | –
32 | Cc1ccc(C(=O)N/N=C/c2cc(Cl)ccc2O)cc1 [Example 180] | 43.9 | 10.8 | 95.1 | – | – | – | – | –
33 | COc1ccc(/C=N/NC(=O)c2ccccc2)c(O)c1 [Example 147] | 13.5 | 0 | 95.6 | – | – | – | – | –
34 | O=C(N/N=C/c1cc([N+](=O)[O-])cc(Br)c1O)c1ccccc1 [Example 153] | 34.6 | 0 | 97.0 | – | – | – | – | –
35 | O=C(N/N=C/c1cc(Cl)ccc1O)c1ccc(C(F)(F)F)cc1 [Example 187] | 92.7 | – | 97.5 | – | – | – | 20.7 | –
36 | O=C(N/N=C/c1cc(Cl)cc([N+](=O)[O-])c1O)c1ccccc1 [Example 150] | 87.5 | 10 | 97.5 | – | – | – | – | –
37 | Cc1ccc([N+](=O)[O-])c(C(=O)N/N=C/c2cc(Cl)cc(Cl)c2O)c1 [Example 9] | 67.3 | 0 | 93.6 | – | – | – | – | –
38 | C/C(=N\NC(=O)c1cc(C)cc(C)c1)c1ccccc1O [Example 39] | 18.6 | 1.3 | 97.9 | – | – | – | – | –
39 | C/C(=N\NC(=O)c1cccc(I)c1)c1ccccc1O [Example 26] | 12.3 | – | 98.4 | – | – | – | – | 2.1
40 | O=C(Cc1ccc(F)cc1)N/N=C/c1cc(Cl)cc(Cl)c1O [Example 126] | 73.0 | 13.2 | 92.4 | – | – | – | – | –
41 | O=C(N/N=C/c1cc(Cl)cc(Cl)c1O)c1ccc(Cl)cc1Cl [Example 78] | 70.9 | 7.9 | 96.3 | – | – | – | – | –
42 | O=C(N/N=C/c1cc(Cl)ccc1O)c1cccc(Cl)c1 [Example 178] | 59.3 | 8.5 | 98.3 | – | – | – | – | –
43 | O=C(N/N=C/c1cc(Br)ccc1O)c1ccc2c(c1)OCO2 [Example 7] | 54.6 | 2.6 | 97.2 | – | – | – | – | –
44 | Cc1ccc(C(=O)N/N=C/c2cc(Cl)cc(Cl)c2O)cc1 [Example 72] | 81.3 | 14.1 | 91.3 | – | – | – | – | –
45 | O=C(N/N=C/c1cc(Cl)ccc1O)c1ccccc1Br [Example 190] | 70.9 | 5.6 | 95.7 | – | – | – | – | –
46 | COc1cccc(C(=O)N/N=C/c2cc(Cl)cc(Cl)c2O)c1 [Example 82] | 60.6 | 8.4 | 97.4 | – | – | – | – | –
47 | C/C(=N\NC(=O)c1cccc(I)c1)c1ccccc1O [Example 13] | 33.3 | – | 96.2 | – | – | – | – | 0.0
48 | O=C(N/N=C/c1cc(Br)cc(Br)c1O)c1cccc(Cl)c1 [Example 122] | 92.7 | 13.5 | 98.7 | – | – | – | – | –
49 | C/C(=N\NC(=O)c1ccc(Cl)cc1)c1ccccc1O [Example 54] | 17.0 | 0 | 95.7 | – | – | – | – | –
50 | C/C(=N\NC(=O)c1ccc([N+](=O)[O-])cc1)c1ccccc1O [Example 215] | 37.0 | 0.5 | 98.6 | – | – | – | – | –
